This passage reports proton-sponge effect capacity and delivery of cargo results from US20250302762A1, “NANOMATERIAL DELIVERY VEHICLE AND METHOD OF USE THEREOF” (University of Connecticut, priority 2022, published 2025).

Molecules are shown by their SMILES.

A short description of data set [1]: Buffering capacity (acid-base titration), proton sponge effect. Conditions: FIG. 4D. Type of data set: physicochemical. As for the experimental part:
JBNP Characterization. The particles and ζ potential of the JBNPs were measured by dynamic light scattering (Zetasizer) and the morphology was observed by transmission electron microscope (TEM). The get retardation assay was conducted at 0.8% low-melting agarose gel followed by electrophoresis. The UV-Vis absorption spectra were recorded with a NanoDrop One. The buffering capacity of JBNPs and polymers, JBNP and cationic polymers at the same 0.08 μmol were titrated by either adding the 2 μL of 10 mM HCl or 10 mM NaOH.

For data set [2], the system named is cells. Briefly: Delivery of small RNAs, mRNAs and albumin via Arg-JBNP. Conditions: FIGS. 3A-3E. In kind it is cell-based. As for the experimental part: Multi-functional JBNPs. Multi-functional JBNPs were prepared by mixing a cargo molecule (e.g., RNA, biologically active small molecule, protein) with the multi-functional JBNT at an appropriate molar ratio in nuclease-free water, followed by sonication with a sonicator at 100% amplitude, for 2 min and 30 s, at room temperature. The concentrations of different components are shown as below: c(JBNT)=1 mg/mL; c(siRNA)=5 uM; c(mRNA)=0.05 mg/mL. c(protein)=0.1 mg/mL. The ratios (volume to volume ratio) for each cargo: (4:1 ratio (Arg-JBNT:siRNA), (20:1 ratio Arg-JBNT:mRNA), (3:1 Arg-JBNT: protein).
Arg-JBNP-siRNA were assembled by mixing Arg-JBNT(1 mg/ml) and siRNA-AF488 (5 uM) in nuclease-free water as ratio of volume to volume of 4:1. Arg-JBNP-mRNA were assembled by mixing Arg-JBNT (1 mg/ml) to Cas9mRNA (0.05 mg/ml) as ratio of volume to volume of 20:1. Arg-JBNP-albumin were assembled by mixing Arg-JBNT (1 mg/ml) to albumin (0.1 mg/ml) as ratio of volume to volume, 3:1. Then mixture of Arg-JBNT and cargoes in nuclease-free water are sonicated with sonicator at 100% amplitude for 2 min and 30 sec.

In the case of `CNc1nc2c(c(N)nc(=O)n2CCN[C@@H](Cc2c[nH]cn2)C(=O)O)c(=O)[nH]1` [Histidine-JBNTs], the proton-sponge effect capacity result in data set [1] is “superior proton-sponge effect capacity”.

For the molecule `CNc1nc2c(c(N)nc(=O)n2CCN[C@@H](CCCNC(=N)N)C(=O)O)c(=O)[nH]1` [ArgJBNTs], the delivery of cargo result in data set [2] is “successful delivery of small RNAs, mRNAs, and albumin (protein)”.
